In patent publication US11492335B2, “Aryl or heteroaryl triazolone derivatives or salts thereof, or pharmaceutical compositions comprising the same” (YUHAN CORPORATION, priority 2018, dated 2022) one finds IC50 data, which are given here for nine compounds.

Common to all, as to type: biochemical
In one assay the target is T1, recombinant human VAP-1 (Homo sapiens, UniProt Q16853).
T1 construct: purchased R&D systems
T1 sequence (Q16853 1-763): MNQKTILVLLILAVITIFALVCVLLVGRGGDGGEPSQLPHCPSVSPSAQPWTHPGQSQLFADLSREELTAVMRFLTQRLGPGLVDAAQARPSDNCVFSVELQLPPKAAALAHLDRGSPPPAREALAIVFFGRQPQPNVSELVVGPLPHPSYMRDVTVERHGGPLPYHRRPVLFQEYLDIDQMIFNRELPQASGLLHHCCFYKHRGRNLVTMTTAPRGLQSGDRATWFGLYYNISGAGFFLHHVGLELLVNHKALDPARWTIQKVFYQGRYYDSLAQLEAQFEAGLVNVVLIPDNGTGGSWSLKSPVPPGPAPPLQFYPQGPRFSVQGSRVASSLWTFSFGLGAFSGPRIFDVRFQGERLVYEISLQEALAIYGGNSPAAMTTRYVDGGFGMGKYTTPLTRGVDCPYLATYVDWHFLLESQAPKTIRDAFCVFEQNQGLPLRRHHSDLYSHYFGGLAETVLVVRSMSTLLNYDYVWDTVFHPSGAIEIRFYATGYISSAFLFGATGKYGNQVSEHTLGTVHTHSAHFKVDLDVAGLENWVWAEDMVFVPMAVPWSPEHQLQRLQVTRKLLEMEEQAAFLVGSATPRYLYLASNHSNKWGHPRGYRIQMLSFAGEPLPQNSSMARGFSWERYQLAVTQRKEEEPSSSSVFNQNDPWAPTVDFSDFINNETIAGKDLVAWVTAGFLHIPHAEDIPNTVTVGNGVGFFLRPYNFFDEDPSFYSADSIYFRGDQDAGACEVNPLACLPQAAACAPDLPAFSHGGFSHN
Nature of the assay: Activity on recombinant human VAP-1, Amplex Red HRP-coupled hydrogen peroxide assay, benzylamine substrate. As to conditions: recombinant human VAP-1, benzylamine substrate, read-out: Inhibitory Activity (IC50, nM) human VAP-1. An outline of the steps: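 Dose-response IC50 determined from reduction in resorufin signal rate (544/590 nm, 1-2 h), with 30 min compound preincubation at 37 °C and 1 mM benzylamine as substrate.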

Assay [1] concerns the target T2, recombinant human MAO-A (monoamine oxidase-A) (Homo sapiens, UniProt P21397).
T2 construct: purchased Sigma-Aldrich
T2 sequence (P21397 1-527): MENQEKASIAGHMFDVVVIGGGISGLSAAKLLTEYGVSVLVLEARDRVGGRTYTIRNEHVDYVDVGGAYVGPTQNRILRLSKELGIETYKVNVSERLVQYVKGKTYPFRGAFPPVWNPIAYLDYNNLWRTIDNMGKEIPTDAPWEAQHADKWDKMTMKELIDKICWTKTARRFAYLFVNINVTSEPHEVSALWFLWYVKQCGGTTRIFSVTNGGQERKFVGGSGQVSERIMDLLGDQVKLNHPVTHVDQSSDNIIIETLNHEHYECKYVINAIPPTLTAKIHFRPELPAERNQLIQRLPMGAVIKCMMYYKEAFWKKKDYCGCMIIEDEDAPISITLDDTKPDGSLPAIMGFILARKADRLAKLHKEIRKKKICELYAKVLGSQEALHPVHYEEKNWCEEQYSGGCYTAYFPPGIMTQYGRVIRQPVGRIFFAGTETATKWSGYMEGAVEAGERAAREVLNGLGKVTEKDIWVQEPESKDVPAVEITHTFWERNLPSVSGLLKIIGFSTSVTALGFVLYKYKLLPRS
The assay can be described thus: Activity on recombinant human MAO-A, Amplex Red method, 0.5 mM tyramine substrate. As to conditions: read-out: Inhibitory Activity (IC50, nM) MAO-A. An outline of the steps:
(§1)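 Amplex Red/HRP coupled read-out of H2O2 with 0.5 mM tyramine for MAO-A or 1 mM benzylamine for MAO-B, following a 30-min compound–enzyme preincubation at 37° C. IC50 from percent inhibition of signal rate relative to uninhibited control.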

Assay [2] addresses T3, recombinant human DAO (diamine oxidase) (Homo sapiens, UniProt P19801).
T3 construct: purchased R&D systems
T3 sequence (P19801 20-751): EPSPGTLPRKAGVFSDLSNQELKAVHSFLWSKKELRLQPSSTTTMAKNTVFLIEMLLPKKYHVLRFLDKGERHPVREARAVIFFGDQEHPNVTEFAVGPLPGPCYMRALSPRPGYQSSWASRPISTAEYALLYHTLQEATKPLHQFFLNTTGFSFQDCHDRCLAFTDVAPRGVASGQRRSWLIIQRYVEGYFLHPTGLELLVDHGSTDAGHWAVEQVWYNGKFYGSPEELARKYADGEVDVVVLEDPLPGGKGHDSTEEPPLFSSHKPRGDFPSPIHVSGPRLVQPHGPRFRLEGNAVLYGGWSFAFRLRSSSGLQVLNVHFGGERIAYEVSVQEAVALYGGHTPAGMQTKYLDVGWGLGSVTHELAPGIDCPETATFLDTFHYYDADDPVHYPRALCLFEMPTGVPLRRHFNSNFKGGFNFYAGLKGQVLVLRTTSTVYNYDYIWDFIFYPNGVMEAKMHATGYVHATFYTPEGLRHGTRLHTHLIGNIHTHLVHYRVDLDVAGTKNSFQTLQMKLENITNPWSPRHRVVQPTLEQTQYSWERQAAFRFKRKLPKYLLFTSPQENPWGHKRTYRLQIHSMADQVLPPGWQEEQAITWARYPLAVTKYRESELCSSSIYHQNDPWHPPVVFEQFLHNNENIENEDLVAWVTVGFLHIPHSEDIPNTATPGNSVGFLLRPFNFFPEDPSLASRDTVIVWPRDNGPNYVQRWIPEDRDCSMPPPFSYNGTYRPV
The assay can be described thus: Activity on recombinant human DAO, Amplex Red method, 1 mM putrescine substrate. Particulars: recombinant human DAO, read-out: Inhibitory Activity (IC50, nM) DAO. The method in brief: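 Inhibition of recombinant human DAO (diamine oxidase, R&D systems) was assessed with the Amplex Red Hydrogen Peroxide Assay Kit. Hydrogen peroxide produced from 1 mM putrescine was detected through an HRP-coupled reaction that converts Amplex Red into fluorescent resorufin, read at 544 nm excitation and 590 nm emission. IC50 values came from four-parameter logistic fits in GraphPad Prism.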

Assay [3] concerns the target T4, recombinant human MAO-B (monoamine oxidase-B) (Homo sapiens, UniProt P27338).
T4 construct: purchased Sigma-Aldrich
T4 sequence (P27338 1-520): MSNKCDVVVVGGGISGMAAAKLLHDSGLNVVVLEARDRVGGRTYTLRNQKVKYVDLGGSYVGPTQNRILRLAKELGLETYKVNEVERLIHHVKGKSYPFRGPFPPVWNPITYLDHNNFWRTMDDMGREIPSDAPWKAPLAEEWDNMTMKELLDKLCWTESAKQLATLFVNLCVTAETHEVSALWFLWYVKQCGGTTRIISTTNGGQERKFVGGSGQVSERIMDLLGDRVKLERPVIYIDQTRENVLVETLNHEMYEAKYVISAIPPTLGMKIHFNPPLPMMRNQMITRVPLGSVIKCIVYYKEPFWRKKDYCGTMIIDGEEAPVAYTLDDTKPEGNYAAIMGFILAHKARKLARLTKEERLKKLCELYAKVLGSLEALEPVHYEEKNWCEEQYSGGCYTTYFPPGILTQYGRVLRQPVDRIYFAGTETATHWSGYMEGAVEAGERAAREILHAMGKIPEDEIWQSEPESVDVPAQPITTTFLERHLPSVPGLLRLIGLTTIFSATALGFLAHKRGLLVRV
The assay can be described thus: Activity on recombinant human MAO-B, Amplex Red method, 1 mM benzylamine substrate. As to conditions: read-out: Inhibitory Activity (IC50, nM) MAO-B. The method in brief:
as §1

[4] abbreviates: 1 mM putrescine, * = between 10 and 100 nM, ** = between 300 and 1000 nM.

Counter-ions that a name gives are not always drawn. Like-named read-outs stand apart in the source and are kept apart here. Some results are limits rather than exact numbers.

As a reminder, the IC50 is the concentration that inhibits the measured activity by half. In the case of `Cc1cc(-n2cnn(C/C(=C/F)CN)c2=O)cnc1-c1cccc(-c2nc[nH]n2)c1` [Example 116, 2-[(2E)-2-(aminomethyl)-3-fluoroprop-2-en-1-yl]-4-{5-methyl-6-[3-(1H-1,2,4-triazol-3-yl)phenyl]pyridin-3-yl}-2,4-dihydro-3H-1,2,4-triazol-3-one], the concentration for half-maximal inhibition (IC50) was 0.72 nM at recombinant human VAP-1 (30 min preincubation at 37° C.), above 100000 nM in assay [1] (0.5 mM tyramine), below 100 nM in assay [2] (setting [4]) and 6020 nM in assay [3] (1 mM benzylamine).

As for `Cn1nc(C(F)(F)F)cc1-c1cccc(-n2cnn(C/C(=C/F)CN)c2=O)n1` [Example 192, 2-[(2E)-2-(aminomethyl)-3-fluoroprop-2-en-1-yl]-4-{6-[1-methyl-3-(trifluoromethyl)-1H-pyrazol-5-yl]pyridin-2-yl}-2,4-dihydro-3H-1,2,4-triazol-3-one hydrochloride], the half-inhibitory concentration (IC50) at recombinant human VAP-1 is 1.4 nM; in assay [1] (0.5 mM tyramine substrate), above 100000 nM; in assay [2] (1 mM putrescine substrate) it was 0.4 nM; in assay [3] (1 mM benzylamine substrate), 250 nM.

Regarding `NC/C(=C\F)Cn1ncn(-c2cccc(-c3ccc4c(c3)OCO4)n2)c1=O` [Example 193, 2-[(2E)-2-(aminomethyl)-3-fluoroprop-2-en-1-yl]-4-[6-(1,3-benzodioxol-5-yl)pyridin-2-yl]-2,4-dihydro-3H-1,2,4-triazol-3-one], the 50% inhibitory concentration (IC50) was 2.5 nM at recombinant human VAP-1, above 100000 nM in assay [1] (0.5 mM tyramine substrate), 38 nM in assay [2] (1 mM putrescine substrate) and 1160 nM in assay [3] (1 mM benzylamine substrate).

On to `NC/C(=C\F)Cn1ncn(-c2cccc(-c3cccc(N4CCNCC4)c3)n2)c1=O` [Example 185, 2-[(2E)-2-(aminomethyl)-3-fluoroprop-2-en-1-yl]-4-{6-[3-(piperazin-1-yl)phenyl]pyridin-2-yl}-2,4-dihydro-3H-1,2,4-triazol-3-one hydrochloride], for which the IC50 at recombinant human VAP-1 was 2.4 nM; in assay [1] (0.5 mM tyramine substrate), above 100000 nM; in assay [2] (1 mM putrescine substrate), 2.5 nM; in assay [3] (1 mM benzylamine substrate), above 10000 nM.

In the case of `NC/C(=C\F)Cn1ncn(-c2cccc(-c3ccc(C(F)(F)F)nc3)n2)c1=O` [Example 187, 2-[(2E)-2-(aminomethyl)-3-fluoroprop-2-en-1-yl]-4-[6′-(trifluoromethyl)-2,3′-bipyridin-6-yl]-2,4-dihydro-3H-1,2,4-triazol-3-one hydrochloride], the concentration for half-maximal inhibition (IC50) on recombinant human VAP-1 was 0.45 nM; in assay [1] (0.5 mM tyramine substrate) it was above 100000 nM; in assay [2] (1 mM putrescine substrate), below 10 nM; in assay [3] (1 mM benzylamine substrate) it was 940 nM.

On to `COc1cc(-n2cnn(C/C(=C\F)CN)c2=O)ccc1Br` [Example 17, 2-[(2Z)-2-(aminomethyl)-3-fluoroprop-2-en-1-yl]-4-(4-bromo-3-methoxyphenyl)-2,4-dihydro-3H-1,2,4-triazol-3-one], for which the IC50 at recombinant human VAP-1 (30 min preincubation at 37° C.) is 2.7 nM; in assay [1] (0.5 mM tyramine), above 100000 nM; in assay [2] (setting [4]) it was 31 nM; in assay [3] (1 mM benzylamine), 406 nM.

Turning to `NC/C(=C\F)Cn1ncn(-c2cccc(Br)n2)c1=O` [Example 37, 2-[(2E)-2-(aminomethyl)-3-fluoroprop-2-en-1-yl]-4-(6-bromopyridin-2-yl)-2,4-dihydro-3H-1,2,4-triazol-3-one], the IC50 on recombinant human VAP-1 (30 min preincubation at 37° C.) is 1.8 nM; in assay [1] (0.5 mM tyramine), above 100000 nM; in assay [2] (setting [4]) it was 16 nM; in assay [3] (1 mM benzylamine) it was above 10000 nM.

For `NC/C(=C\F)Cn1ncn(-c2cccc(-c3ccc(C(=O)N4CCOCC4)cc3)c2)c1=O` [Example 78, 2-[(2E)-2-(aminomethyl)-3-fluoroprop-2-en-1-yl]-4-[4′-(morpholin-4-ylcarbonyl)biphenyl-3-yl]-2,4-dihydro-3H-1,2,4-triazol-3-one hydrochloride], the IC50 on recombinant human VAP-1 (30 min preincubation at 37° C.) is 1 nM; in assay [1] (0.5 mM tyramine), above 100000 nM; in assay [2] (setting [4]), 0.2 nM; in assay [3] (1 mM benzylamine), above 10000 nM.

For the compound `NC/C(=C\F)Cn1ncn(-c2cc(F)c(Br)c(F)c2)c1=O` [Example 20, 2-[(2E)-2-(aminomethyl)-3-fluoroprop-2-en-1-yl]-4-(4-bromo-3,5-difluorophenyl)-2,4-dihydro-3H-1,2,4-triazol-3-one hydrochloride], the IC50 was 2.2 nM on recombinant human VAP-1 (30 min preincubation at 37° C.), above 100000 nM in assay [1] (0.5 mM tyramine), 15 nM in assay [2] (setting [4]) and above 10000 nM in assay [3] (1 mM benzylamine).
